The results in this text go back to the Kinase Knowledgebase extract (Sharma et al. 2016).

For this test, the target named is ROCK2 (human) (UniProt O75116). As to the kind of experiment: Inhibition of ROCK2 Kinase Activity.
Sequence of ROCK2 (human) (O75116 whole entry, looked up): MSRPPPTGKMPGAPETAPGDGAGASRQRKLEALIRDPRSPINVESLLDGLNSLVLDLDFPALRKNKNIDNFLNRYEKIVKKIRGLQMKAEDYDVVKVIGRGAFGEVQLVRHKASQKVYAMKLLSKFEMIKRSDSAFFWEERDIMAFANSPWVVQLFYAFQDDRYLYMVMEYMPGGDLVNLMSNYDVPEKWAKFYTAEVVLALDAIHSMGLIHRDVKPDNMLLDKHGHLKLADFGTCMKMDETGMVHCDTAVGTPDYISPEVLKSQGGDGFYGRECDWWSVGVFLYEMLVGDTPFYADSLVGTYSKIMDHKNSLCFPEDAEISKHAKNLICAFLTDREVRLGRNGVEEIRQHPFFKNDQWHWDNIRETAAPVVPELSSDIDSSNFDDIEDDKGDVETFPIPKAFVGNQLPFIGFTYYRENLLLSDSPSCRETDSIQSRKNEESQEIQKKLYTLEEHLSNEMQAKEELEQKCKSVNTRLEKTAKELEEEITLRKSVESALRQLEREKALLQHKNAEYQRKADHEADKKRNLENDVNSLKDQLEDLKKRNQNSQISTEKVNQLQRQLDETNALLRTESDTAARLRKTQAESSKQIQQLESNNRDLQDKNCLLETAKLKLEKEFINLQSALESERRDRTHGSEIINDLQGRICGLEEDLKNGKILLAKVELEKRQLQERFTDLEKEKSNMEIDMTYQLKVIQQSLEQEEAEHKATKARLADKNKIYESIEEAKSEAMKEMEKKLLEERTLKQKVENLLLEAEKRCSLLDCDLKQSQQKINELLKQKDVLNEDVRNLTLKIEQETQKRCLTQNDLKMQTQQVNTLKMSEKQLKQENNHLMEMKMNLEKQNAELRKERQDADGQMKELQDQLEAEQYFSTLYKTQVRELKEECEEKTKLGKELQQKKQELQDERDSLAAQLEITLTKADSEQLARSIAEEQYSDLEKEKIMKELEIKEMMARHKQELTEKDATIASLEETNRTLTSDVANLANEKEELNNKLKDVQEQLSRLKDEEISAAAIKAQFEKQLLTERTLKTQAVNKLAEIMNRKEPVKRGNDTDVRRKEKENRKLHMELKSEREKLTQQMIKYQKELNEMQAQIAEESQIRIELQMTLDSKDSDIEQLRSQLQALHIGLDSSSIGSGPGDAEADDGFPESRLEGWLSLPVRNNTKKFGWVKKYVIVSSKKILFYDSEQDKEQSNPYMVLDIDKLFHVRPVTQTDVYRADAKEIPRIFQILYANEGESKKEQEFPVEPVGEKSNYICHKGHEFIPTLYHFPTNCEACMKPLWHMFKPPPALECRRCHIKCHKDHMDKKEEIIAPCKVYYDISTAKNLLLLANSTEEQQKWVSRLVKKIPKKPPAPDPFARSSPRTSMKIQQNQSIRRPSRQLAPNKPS

Regarding `COC(=O)c1ccc(C(=O)NCc2nc(-c3ccncc3)n[nH]2)cc1`, the 50% inhibitory concentration (IC50) was ≤ 5 µM. In the case of `O=C(NCc1nc(-c2ccncc2)n[nH]1)c1cccc2cc[nH]c12`, the IC50 was ≤ 5 µM. With `CC(C)(C)OC(=O)NC(Cc1ccccc1)C(=O)NCc1nc(-c2c[nH]c3ncccc23)n[nH]1` (centres undefined), the concentration for half-maximal inhibition (IC50) is > 5 µM. The value for `COc1ccc(Br)c(C(=O)NCc2nc(-c3c[nH]c4ncccc34)n[nH]2)c1` was > 5 µM; that for `O=S(=O)(NCc1nc(-c2ccncc2)n[nH]1)c1ccc(OCc2ccccc2)cc1` was > 5 µM; that for `O=C(NCc1nc(-c2ccncc2)c[nH]1)c1ccc(O)cc1O` was ≤ 5 µM. The same measure for `COc1ccc(C(=O)NCc2nc(-c3c[nH]c4ncccc34)n[nH]2)cc1O`: > 5 µM; for `COc1cc(OC)cc(C(=O)NCc2nc(-c3ccncc3)n[nH]2)c1`: > 5 µM. For `O=C(NCc1nc(-c2c[nH]c3ncccc23)n[nH]1)c1cc2ccccc2cc1O`, the half-maximal inhibitory concentration (IC50) is > 5 µM. The value for `Oc1ccc(C(O)CCc2nc(-c3ccncc3)n[nH]2)cc1` (centres undefined) was > 5 µM. Take `CC(=O)Oc1ccc(C(=O)NCc2nc(-c3ccncc3)n[nH]2)c(O)c1`: the IC50 was ≤ 5 µM. Turning to `Cc1ccc(C(=O)NCc2nc(-c3c[nH]c4ncccc34)n[nH]2)cc1Br`, the half-maximal inhibitory concentration (IC50) is > 5 µM. In the case of `O=C(NCc1nc(-c2ccncc2)n[nH]1)c1cc(O)ccc1[N+](=O)[O-]`, the IC50 was > 5 µM. The same measure for `O=C(Cc1ccc2c(c1)OCO2)NCc1nc(-c2c[nH]c3ncccc23)n[nH]1`: > 5 µM. `O=C(NCc1nc(-c2ccncc2)n[nH]1)c1cc2ccccc2cc1O`: the 50% inhibitory concentration (IC50) is ≤ 5 µM. The same measure for `O=C(NCc1nc(-c2c[nH]c3ncccc23)n[nH]1)c1cc(Br)ccc1Cl`: > 5 µM; for `Cn1cnc(C(=O)NCc2nc(-c3c[nH]c4ncccc34)n[nH]2)c1`: > 5 µM. As for `COc1cccc(C(=O)NCc2nc(-c3ccncc3)n[nH]2)c1OC`, the concentration for half-maximal inhibition (IC50) was > 5 µM. With `O=C(NCc1nc(-c2c[nH]c3ncccc23)n[nH]1)c1cccc(O)c1`, the concentration for half-maximal inhibition (IC50) is > 5 µM. The value for `O=C(NCc1nc(-c2c[nH]c3ncccc23)n[nH]1)C(F)(F)F` was > 5 µM. In the case of `Clc1ccc(SCc2n[nH]c(-c3ccncc3)n2)cc1`, the half-inhibitory concentration (IC50) is ≤ 5 µM. `O=C(NCc1nc(-c2ccncc2)n[nH]1)c1cccc(O)c1O`: the IC50 is > 5 µM. As for `CC(C)(C)C(=O)Oc1ccc(C(=O)NCc2nc(-c3ccncc3)n[nH]2)c(O)c1`, the IC50 was > 5 µM. Turning to `CC(C)(C)OC(=O)NCC(=O)NCc1nc(-c2c[nH]c3ncccc23)n[nH]1`, the IC50 was > 5 µM. For `O=C(NCc1nc(-c2c[nH]c3ncccc23)n[nH]1)c1cc(F)cc(F)c1`, the half-inhibitory concentration (IC50) is > 5 µM. Turning to `O=C(NCc1nc(-c2ccncc2)n[nH]1)c1ccncc1`, the concentration for half-maximal inhibition (IC50) is > 5 µM. Take `N#Cc1ccc(C(=O)NCc2nc(-c3ccncc3)n[nH]2)cc1`: the half-inhibitory concentration (IC50) was > 5 µM. As to `O=C(C=Cc1ccccc1F)NCc1nc(-c2c[nH]c3ncccc23)n[nH]1`, the IC50 was > 5 µM. The value for `O=C(NCc1nc(-c2ccncc2)n[nH]1)c1ncc[nH]1` was > 5 µM; that for `CC(C(=O)NCc1nc(-c2ccncc2)n[nH]1)c1ccc(-c2ccccc2)c(F)c1` (centres undefined) was > 5 µM. In the case of `CC(CC(=O)NCc1nc(-c2c[nH]c3ncccc23)n[nH]1)CC(C)(C)C` (centres undefined), the IC50 is > 5 µM. The value for `Cc1ccc(C(=O)NCc2nc(-c3ccncc3)n[nH]2)c(O)c1` was ≤ 5 µM. The same measure for `CC(C)c1ccc(C(=O)NCc2nc(-c3ccncc3)n[nH]2)cc1`: > 5 µM; for `O=C(C=Cc1cccc(O)c1)NCc1nc(-c2c[nH]c3ncccc23)n[nH]1`: > 5 µM; for `COc1ccccc1CC(=O)NCc1nc(-c2c[nH]c3ncccc23)n[nH]1`: > 5 µM. Take `O=C(Cc1ccc(O)c(F)c1)NCc1nc(-c2ccncc2)n[nH]1`: the IC50 is > 5 µM.

For `O=C(NCc1nc(-c2c[nH]c3ncccc23)n[nH]1)c1cccnc1Cl`, the IC50 was > 5 µM.

Regarding `COc1ccc(OC)c(C(=O)NCc2nc(-c3c[nH]c4ncccc34)n[nH]2)c1`, the half-maximal inhibitory concentration (IC50) was > 5 µM.

Regarding `O=C(NCc1nc(-c2c[nH]c3ncccc23)n[nH]1)c1ccccc1C(=O)c1ccc(O)cc1`, the IC50 was > 5 µM. With `COc1ccc(C(=O)NCc2nc(-c3ccncc3)n[nH]2)c(OC)c1OC`, the IC50 was > 5 µM. For the compound `CS(=O)(=O)Nc1ccccc1C(=O)NCc1nc(-c2ccncc2)n[nH]1`, the IC50 was > 5 µM. For `Cc1ccc([N+](=O)[O-])c(C(=O)NCc2nc(-c3c[nH]c4ncccc34)n[nH]2)c1`, the IC50 was > 5 µM.

Consider `Cc1ccc(C(=O)NCc2nc(-c3c[nH]c4ncccc34)n[nH]2)cc1C`, for which the IC50 was > 5 µM.

Take `N#Cc1cccc(C(=O)NCc2nc(-c3c[nH]c4ncccc34)n[nH]2)c1`: the IC50 was > 5 µM. With `O=C(CCc1cccc(Br)c1)NCc1nc(-c2ccncc2)n[nH]1`, the half-maximal inhibitory concentration (IC50) is > 5 µM.

For the compound `O=C(NCc1nc(-c2c[nH]c3ncccc23)n[nH]1)c1ccc2cccc(O)c2n1`, the half-inhibitory concentration (IC50) is > 5 µM. For `COc1ccc(C=CC(=O)NCc2nc(-c3ccncc3)n[nH]2)cc1O`, the IC50 is > 5 µM. Take `O=C(NCc1nc(-c2c[nH]c3ncccc23)n[nH]1)c1ccc(F)c(F)c1`: the half-inhibitory concentration (IC50) was > 5 µM. With `COc1ccc(Cl)cc1C(=O)NCc1nc(-c2c[nH]c3ncccc23)n[nH]1`, the IC50 was > 5 µM. The value for `O=C(NCc1nc(-c2ccncc2)n[nH]1)c1ccccc1C(=O)c1ccc(O)cc1` was > 5 µM; that for `COc1ccc(C(=O)NCc2nc(-c3ccncc3)n[nH]2)cc1O` was > 5 µM; that for `COc1ccc([N+](=O)[O-])c(C(=O)NCc2nc(-c3c[nH]c4ncccc34)n[nH]2)c1` was > 5 µM.

For the compound `CCC(C(=O)NCc1nc(-c2ccncc2)n[nH]1)c1ccncc1` (centres undefined), the IC50 was > 5 µM. The same measure for `O=C(NCc1nc(-c2c[nH]c3ncccc23)n[nH]1)c1cc([N+](=O)[O-])ccc1F`: > 5 µM. `CC(C)C(C(=O)NCc1nc(-c2c[nH]c3ncccc23)n[nH]1)N(C)C(=O)OC(C)(C)C` (centres undefined): the concentration for half-maximal inhibition (IC50) is > 5 µM. As for `COc1cc(C=CC(=O)NCc2nc(-c3c[nH]c4ncccc34)n[nH]2)ccc1O`, the 50% inhibitory concentration (IC50) was > 5 µM. As to `O=C(NCc1nc(-c2ccncc2)n[nH]1)c1cc(Cl)ccc1[N+](=O)[O-]`, the IC50 was > 5 µM. The value for `O=C(NCc1nc(-c2c[nH]c3ncccc23)n[nH]1)c1ccncc1` was > 5 µM; that for `O=C(C=Cc1ccc2c(c1)OCO2)NCc1nc(-c2ccncc2)n[nH]1` was > 5 µM. The same measure for `COc1cccc(OC)c1C(=O)NCc1nc(-c2c[nH]c3ncccc23)n[nH]1`: > 5 µM; for `Cc1cccc(C(=O)NCc2nc(-c3c[nH]c4ncccc34)n[nH]2)c1O`: > 5 µM; for `O=C(NCc1nc(-c2ccncc2)n[nH]1)c1cc(Cl)c(O)c(Cl)c1`: > 5 µM.

On to `O=C(NCc1nc(-c2ccncc2)n[nH]1)c1c(F)c(F)c(F)c(F)c1F`, for which the IC50 was > 5 µM. Turning to `COc1cc(OC)c(C(=O)NCc2nc(-c3c[nH]c4ncccc34)n[nH]2)c(OC)c1`, the IC50 is > 5 µM.

On to `O=C(NCc1nc(-c2c[nH]c3ncccc23)n[nH]1)c1c(F)c(F)c(F)c(F)c1F`, for which the half-inhibitory concentration (IC50) was > 5 µM. Turning to `CCC(=O)C(=O)NCc1nc(-c2c[nH]c3ncccc23)n[nH]1`, the half-maximal inhibitory concentration (IC50) is > 5 µM. With `O=C(NCc1nc(-c2c[nH]c3ncccc23)n[nH]1)C1CCCN1C(=O)OCc1ccccc1` (centres undefined), the IC50 was > 5 µM. For `O=C(CCc1ccccc1Br)NCc1nc(-c2c[nH]c3ncccc23)n[nH]1`, the half-inhibitory concentration (IC50) is > 5 µM. The same measure for `O=C(NCc1nc(-c2c[nH]c3ncccc23)n[nH]1)c1ccccc1Cl`: > 5 µM; for `CC(C)C(=O)Oc1ccc(C(=O)NCc2nc(-c3ccncc3)n[nH]2)c(O)c1`: ≤ 5 µM.

As for `COc1ccc(NC(=O)NCc2nc(-c3ccncc3)n[nH]2)c(OC)c1`, the IC50 was > 5 µM.

In the case of `COc1ccc(Cl)cc1C(=O)NCc1nc(-c2ccncc2)n[nH]1`, the IC50 was > 5 µM. Regarding `O=C(NCc1nc(-c2c[nH]c3ncccc23)n[nH]1)c1ccc(O)cc1O`, the IC50 is ≤ 5 µM. For `CC(C)(C)OC(=O)N1Cc2ccccc2CC1C(=O)NCc1nc(-c2ccncc2)n[nH]1` (centres undefined), the IC50 was > 5 µM.

For the compound `Cc1c(O)ccc(C(=O)NCc2nc(-c3ccncc3)n[nH]2)c1O`, the 50% inhibitory concentration (IC50) was ≤ 5 µM. The same measure for `COc1cc(OC)c(C(=O)NCc2nc(-c3ccncc3)n[nH]2)c(OC)c1`: > 5 µM. Turning to `CC(=O)c1ccccc1C(=O)NCc1nc(-c2c[nH]c3ncccc23)n[nH]1`, the IC50 is > 5 µM.

`Cc1ccc(C(=O)NCc2nc(-c3c[nH]c4ncccc34)n[nH]2)cc1`: the half-maximal inhibitory concentration (IC50) is > 5 µM. The value for `O=C(NCc1nc(-c2c[nH]c3ncccc23)n[nH]1)C1CCCCC1` was > 5 µM; that for `CC(=O)Nc1cccc(C(=O)NCc2nc(-c3ccncc3)n[nH]2)c1` was > 5 µM. Consider `O=C(NCc1nc(-c2ccncc2)n[nH]1)c1cccc(Br)c1`, for which the concentration for half-maximal inhibition (IC50) was > 5 µM. With `O=C(NCc1nc(-c2ccncc2)n[nH]1)C(O)CCl` (centres undefined), the 50% inhibitory concentration (IC50) was > 5 µM. Turning to `O=C(Cc1ccc(C(F)(F)F)cc1)NCc1nc(-c2c[nH]c3ncccc23)n[nH]1`, the concentration for half-maximal inhibition (IC50) was > 5 µM. As for `O=C(C=Cc1ccccc1C(F)(F)F)NCc1nc(-c2ccncc2)n[nH]1`, the IC50 was > 5 µM.

In the case of `Cc1cccc([N+](=O)[O-])c1C(=O)NCc1nc(-c2ccncc2)n[nH]1`, the half-inhibitory concentration (IC50) was > 5 µM. For `O=C(NCc1nc(-c2ccncc2)n[nH]1)C1CCCO1` (centres undefined), the IC50 was > 5 µM.

Consider `O=C(NCc1nc(-c2ccncc2)n[nH]1)c1ccccc1`, for which the IC50 was > 5 µM.

Take `CC(=O)Oc1cccc(C(=O)NCc2nc(-c3ccncc3)n[nH]2)c1`: the IC50 is > 5 µM. For the compound `N#CCC(=O)NCc1nc(-c2c[nH]c3ncccc23)n[nH]1`, the concentration for half-maximal inhibition (IC50) is > 5 µM.

In the case of `CC(C)(C)OC(=O)NCC[C@H](NC(=O)c1ccc(O)cc1O)c1nc(-c2ccncc2)n[nH]1`, the half-maximal inhibitory concentration (IC50) was ≤ 5 µM.

For `CC(CC(=O)NCc1nc(-c2ccncc2)n[nH]1)CC(C)(C)C` (centres undefined), the IC50 was > 5 µM. Take `O=C(CCc1nc2ccccc2[nH]1)NCc1nc(-c2ccncc2)n[nH]1`: the half-maximal inhibitory concentration (IC50) is > 5 µM. Turning to `O=C(Cc1ccc(O)c(F)c1)NCc1nc(-c2c[nH]c3ncccc23)n[nH]1`, the half-maximal inhibitory concentration (IC50) was > 5 µM.

With `CC(C)(C)C(=O)Oc1ccc(C(=O)NCc2nc(-c3ccncc3)n[nH]2)cc1`, the IC50 was > 5 µM.
